Results published in patent US20140357713A1, “ANTIMICROBIAL COMPOUNDS AND METHODS OF USE” (NexMed Holdings, Inc., priority 2012, published 2014).
Structures can show the parent of a compound that is named as a salt.

Experiments:
[1] = tested on: Staphulococcus aureus (ATCC 29213); test: Minimum inhibitory concentration (MIC) assay, Example 33; assay type: cell-based, Staphylococcus aureus; details: Staphylococcus aureus, ATCC29213, read-out: MIC S. aureus, n = 1
Outline: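 Antibacterial MICs come from CLSI-guided broth microdilution in CAMHB at 35° C, using a McFarland 0.5-standardized inoculum diluted 1:100 before 1:2 addition to drug wells.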

Aspergillus niger = test: Extended time kill study, Example 34 (0 to 24 h); assay type: cell-based
Protocol: (§1) Time kill studies. Strain suspensions were prepared as described above for the MIC test, and strain suspensions and compound solutions were mixed in the same volume. Samples were removed at specified times including 0 min, 30 sec, 1 min and 5 mins, were diluted in the test medium and streaked on agar. Colonies were counted after 24 to 48 hrs of incubation.
(§2) The time kill studies of Example 33 were extended for five compounds (Nex-59, Nex-60, Nex-61, Nex-62, and Nex-88) using the same methods at longer time periods and at higher multiples of MIC. Nex-88 is a code number for DDAIP.HCl from a different supplier.

Candida albicans = test: Extended time kill study, Example 34 (0 to 24 h); assay type: cell-based
Protocol: as §1, §2

Staphylococcus aureus = test: Extended time kill study, Example 34 (0 to 24 h); assay type: cell-based
Protocol: as §1, §2

CCCCCCCCCCCCOC(=O)C(C)N(C)C (stereo not shown) [Nex-05, Dodecyl 2-(dimethylamino)propanoate hydrochloride]
MIC [1]: 3130 µg/mL
Viable counts in Log10 CFU/mL (Aspergillus niger; 1 × MIC, 1 h): 5.28 Log10 CFU/mL
Viable counts in Log10 CFU/mL (Aspergillus niger; 1 × MIC, 2 h): 4.78 Log10 CFU/mL
Viable counts in Log10 CFU/mL (Aspergillus niger; 1 × MIC, 4 h): 4.60 Log10 CFU/mL
Viable counts in Log10 CFU/mL (Aspergillus niger; 1 × MIC, 6 h): 4.30 Log10 CFU/mL
Viable counts in Log10 CFU/mL (Aspergillus niger; 1 × MIC, 24 h): 3.30 Log10 CFU/mL
Viable counts in Log10 CFU/mL (Aspergillus niger; 1 × MIC, 0 h): 5.41 Log10 CFU/mL
Viable counts in Log10 CFU/mL (Aspergillus niger; 2 × MIC, 1 h): 4.30 Log10 CFU/mL
Viable counts in Log10 CFU/mL (Aspergillus niger; 2 × MIC, 2 h): 4.70 Log10 CFU/mL
Viable counts in Log10 CFU/mL (Aspergillus niger; 2 × MIC, 4 h): 3 Log10 CFU/mL
Viable counts in Log10 CFU/mL (Aspergillus niger; 2 × MIC, 6 h): 4 Log10 CFU/mL
Viable counts in Log10 CFU/mL (Aspergillus niger; 2 × MIC, 24 h): <2 Log10 CFU/mL
Viable counts in Log10 CFU/mL (Aspergillus niger; 2 × MIC, 0 h): 5.38 Log10 CFU/mL
Viable counts in Log10 CFU/mL (Aspergillus niger; 4 × MIC, 1 h): 4.48 Log10 CFU/mL
Viable counts in Log10 CFU/mL (Aspergillus niger; 4 × MIC, 2 h): 4 Log10 CFU/mL
Viable counts in Log10 CFU/mL (Aspergillus niger; 4 × MIC, 4 h): 3 Log10 CFU/mL
Viable counts in Log10 CFU/mL (Aspergillus niger; 4 × MIC, 6 h): 4 Log10 CFU/mL
Viable counts in Log10 CFU/mL (Aspergillus niger; 4 × MIC, 24 h): <2 Log10 CFU/mL
Viable counts in Log10 CFU/mL (Aspergillus niger; 4 × MIC, 0 h): 5.50 Log10 CFU/mL
Viable counts in Log10 CFU/mL (Candida albicans; 1 × MIC, 1 h): 5.62 Log10 CFU/mL
Viable counts in Log10 CFU/mL (Candida albicans; 1 × MIC, 2 h): 5.60 Log10 CFU/mL
Viable counts in Log10 CFU/mL (Candida albicans; 1 × MIC, 4 h): 5.60 Log10 CFU/mL
Viable counts in Log10 CFU/mL (Candida albicans; 1 × MIC, 6 h): 6.02 Log10 CFU/mL
Viable counts in Log10 CFU/mL (Candida albicans; 1 × MIC, 24 h): >6 Log10 CFU/mL
Viable counts in Log10 CFU/mL (Candida albicans; 1 × MIC, 0 h): 5.82 Log10 CFU/mL
Viable counts in Log10 CFU/mL (Candida albicans; 2 × MIC, 1 h): 4.99 Log10 CFU/mL
Viable counts in Log10 CFU/mL (Candida albicans; 2 × MIC, 2 h): 4.88 Log10 CFU/mL
Viable counts in Log10 CFU/mL (Candida albicans; 2 × MIC, 4 h): 4.62 Log10 CFU/mL
Viable counts in Log10 CFU/mL (Candida albicans; 2 × MIC, 6 h): 4.58 Log10 CFU/mL
Viable counts in Log10 CFU/mL (Candida albicans; 2 × MIC, 24 h): 2.57 Log10 CFU/mL
Viable counts in Log10 CFU/mL (Candida albicans; 2 × MIC, 0 h): 5.81 Log10 CFU/mL
Viable counts in Log10 CFU/mL (Candida albicans; 4 × MIC, 1 h): 3.95 Log10 CFU/mL
Viable counts in Log10 CFU/mL (Candida albicans; 4 × MIC, 2 h): 3.90 Log10 CFU/mL
Viable counts in Log10 CFU/mL (Candida albicans; 4 × MIC, 4 h): <2.70 Log10 CFU/mL
Viable counts in Log10 CFU/mL (Candida albicans; 4 × MIC, 6 h): <2.70 Log10 CFU/mL
Viable counts in Log10 CFU/mL (Candida albicans; 4 × MIC, 24 h): <1 Log10 CFU/mL
Viable counts in Log10 CFU/mL (Candida albicans; 4 × MIC, 0 h): 5.79 Log10 CFU/mL
Viable counts, Staphylococcus aureus time kill study (Staphylococcus aureus; 1 × MIC, 1 h): <3 Log10 CFU/mL
Viable counts, Staphylococcus aureus time kill study (Staphylococcus aureus; 1 × MIC, 2 h): <3 Log10 CFU/mL
Viable counts, Staphylococcus aureus time kill study (Staphylococcus aureus; 1 × MIC, 4 h): <3 Log10 CFU/mL
Viable counts, Staphylococcus aureus time kill study (Staphylococcus aureus; 1 × MIC, 6 h): <3 Log10 CFU/mL
Viable counts, Staphylococcus aureus time kill study (Staphylococcus aureus; 1 × MIC, 24 h): <1 Log10 CFU/mL
Viable counts, Staphylococcus aureus time kill study (Staphylococcus aureus; 1×MIC, time 0): 6.24 Log10 CFU/mL
Viable counts, Staphylococcus aureus time kill study (Staphylococcus aureus; 2 × MIC, 1 h): <3 Log10 CFU/mL
Viable counts, Staphylococcus aureus time kill study (Staphylococcus aureus; 2 × MIC, 2 h): <3 Log10 CFU/mL
Viable counts, Staphylococcus aureus time kill study (Staphylococcus aureus; 2 × MIC, 4 h): <3 Log10 CFU/mL
Viable counts, Staphylococcus aureus time kill study (Staphylococcus aureus; 2 × MIC, 6 h): <3 Log10 CFU/mL
Viable counts, Staphylococcus aureus time kill study (Staphylococcus aureus; 2 × MIC, 24 h): <1 Log10 CFU/mL
Viable counts, Staphylococcus aureus time kill study (Staphylococcus aureus; 2 × MIC, time 0): 6.25 Log10 CFU/mL
Viable counts, Staphylococcus aureus time kill study (Staphylococcus aureus; 4 × MIC, 1 h): <3 Log10 CFU/mL
Viable counts, Staphylococcus aureus time kill study (Staphylococcus aureus; 4 × MIC, 2 h): <3 Log10 CFU/mL
Viable counts, Staphylococcus aureus time kill study (Staphylococcus aureus; 4 × MIC, 4 h): <3 Log10 CFU/mL
Viable counts, Staphylococcus aureus time kill study (Staphylococcus aureus; 4 × MIC, 6 h): <3 Log10 CFU/mL
Viable counts, Staphylococcus aureus time kill study (Staphylococcus aureus; 4 × MIC, 24 h): <1 Log10 CFU/mL
Viable counts, Staphylococcus aureus time kill study (Staphylococcus aureus; 4 × MIC, time 0): 6.23 Log10 CFU/mL
